Test results taken from paper PMC8874959 (Viruses, 2022).
Like-named read-outs stand apart in the source and are kept apart here.

Tests used:
SARS-CoV-2 D614G [1] = test system: SARS-CoV-2 D614G
SARS-CoV-2 D614G [2] = test system: SARS-CoV-2 D614G; remark: listed apart in the source

## CCN(CC)CCCC(C)Nc1ccnc2cc(Cl)ccc12 (centres unmarked) [Chloroquine]
SARS-CoV-2 D614G [1]
  EC50: > 10 µM
  EC90: > 10 µM
SARS-CoV-2 D614G [2]
  EC50: 1.1 ± 0.07 µM
  EC90: 3.5 ± 0.8 µM

## OC(c1cc(C(F)(F)F)nc2c(C(F)(F)F)cccc12)C1CCCCN1 (centres unmarked) [Mefloquine]
SARS-CoV-2 D614G [2]
  EC50: 0.6 ± 0.03 µM
